{"source": "patent US20240252517A1", "about": "“MINERALOCORTICOID RECEPTOR ANTAGONISTS FOR THE PREVENTION AND/OR TREATMENT OF A CORONAVIRUS INFECTION” (Imaginatives Group Limited, priority 2021, published 2024)", "key": {"endothelial cells": {"system": "endothelial cells", "conditions": "MR activation; result in words; cited from earlier work"}, "COVID-19": {"system": "COVID-19", "conditions": "cited from earlier work"}}}
{"molecule": "CC(=O)S[C@@H]1CC2=CC(=O)CC[C@]2(C)[C@H]2CC[C@@]3(C)[C@@H](CC[C@@]34CCC(=O)O4)[C@H]12", "note": "[spironolactone]", "values": [{"measurement": "Exocytosis of Weibel-Palade bodies / Von Willebrand Factor", "setting": "endothelial cells", "value": "blocked"}]}
{"molecule": "C[C@@H]1C[C@H]2[C@@H]3CCC4=CC(=O)C=C[C@]4(C)[C@@]3(F)[C@@H](O)C[C@]2(C)[C@@]1(O)C(=O)CO", "note": "[HIDEX, dexamethasone]", "values": [{"measurement": "Resorption of pneumonia on day 5 (number of patients)", "setting": "SARS-CoV-2; 120 h", "value": 15}, {"measurement": "Fasting glucose", "setting": "SARS-CoV-2; after 5 d, mean ± SD, baseline HIDEX 5.9 ± 2.0, SPIDEX 6.89 ± 3.22", "value": "11.69 ± 6.21", "unit": "mmol/L"}, {"measurement": "Breath rate/min", "setting": "SARS-CoV-2; after 5 d, mean ± SD, baseline HIDEX 24.8 ± 4.6, SPIDEX 24.2 ± 4.1", "value": "18.4 ± 3.1", "unit": "min⁻¹"}, {"measurement": "CRP", "setting": "SARS-CoV-2; after 5 d, mean ± SD, baseline HIDEX 72.4 ± 61.7, SPIDEX 65.75 ± 50.9", "value": "28.1 ± 22.9", "unit": "mg/L"}, {"measurement": "HR/min", "setting": "SARS-CoV-2; after 5 d, mean ± SD, baseline HIDEX 84.7 ± 10.8, SPIDEX 83.8 ± 11.8", "value": "89.1 ± 10.6", "unit": "min⁻¹"}, {"measurement": "BPdiast., mm Hg", "setting": "SARS-CoV-2; after 5 d, mean ± SD, baseline HIDEX 86 ± 8.6, SPIDEX 85.25 ± 12.40", "value": "89.0 ± 10.6", "unit": "mm Hg"}, {"measurement": "Blood oxygen, %", "setting": "SARS-CoV-2; after 5 d, mean ± SD, baseline HIDEX 91.8 ± 3.6, SPIDEX 91.7 ± 3.3", "value": "94.1 ± 3.0", "unit": "%"}, {"measurement": "D-dimer", "setting": "SARS-CoV-2; after 5 d, mean ± SD, baseline HIDEX 736.7 ± 680.6, SPIDEX 755.5 ± 606.1", "value": "574.8 ± 306.4", "unit": "ng/mL"}, {"measurement": "CRP, mg/l (range in brackets)", "setting": "SARS-CoV-2; after 5 d, range, baseline HIDEX 6.4-204, SPIDEX 10.2-209", "value": "(2.8-83.5) mg/l"}, {"measurement": "D-dimer, ng/ml (range in brackets)", "setting": "SARS-CoV-2; after 5 d, range, baseline HIDEX 85-2500, SPIDEX 145-2500", "value": "(38-2800) ng/ml"}, {"measurement": "Fasting blood glucose compared to baseline", "setting": "SARS-CoV-2; after 5 d, result in words", "value": "significantly elevated"}, {"measurement": "Loss of smell/taste, % of patients", "setting": "SARS-CoV-2; after 5 days treatment, baseline 85% (spironolactone/low dose dexamethasone), 82.5% (high dose dexamethasone)", "value": 75, "unit": "%"}, {"measurement": "BPsyst., mm Hg", "setting": "SARS-CoV-2; after 5 d of treatment, mean ± SD, baseline HIDEX 139.6 ± 15.5, SPIDEX 137.5 ± 22.5", "value": "150.1 ± 20.1", "unit": "mm Hg"}, {"measurement": "Deaths (number of patients)", "setting": "SARS-CoV-2; of 40 patients per group", "value": 1}, {"measurement": "Deterioration of the Chest X-ray picture assessed on the 5th day (number of patients)", "setting": "SARS-CoV-2; of 40 patients per group", "value": 4}]}
{"molecule": "C[C@]12CCC(=O)C=C1C=C[C@@H]1[C@@H]2CC[C@@]2(C)[C@H]1CC[C@@]21CCC(=O)O1", "note": "[canrenone]", "values": [{"measurement": "Patients requiring ventilation", "setting": "COVID-19; group B given canrenone, group A 49%", "value": 20, "unit": "%"}, {"measurement": "Mortality", "setting": "COVID-19; group B given canrenone, group A conventional treatment 36%", "value": 13, "unit": "%"}, {"measurement": "D-Dimer levels", "setting": "COVID-19; result in words, rose significantly in control group", "value": "fell"}]}
